From article PMC4523496 (Molecular psychiatry, 2015)

Columns and labels:
[1] = test system: IL-1β mRNA in VTA, NAc, vmPFC; assay: IL-1β mRNA in brain micro-punches after systemic drug; assay type: in vivo, rat; conditions: (+)-naloxone […] s.c. twice; 30 min and 2 h after cocaine 10 mg/kg
[2] = test system: extracellular dopamine in the NAc; assay: In vivo microdialysis of NAc shell dopamine; parameters: species or system rat; conditions: for effect on basal NAc dopamine levels: antagonist alone; for effect on intra-VTA neurotensin-induced elevation of NAc dopamine: control for non-specific disruption of neuronal responsiveness; for extracellular NAc dopamine, compound alone: cocaine 10 mg/kg systemic, neurotensin 10 nMol or LPS 10 ng intra-VTA; for increase of NAc dopamine concentrations: intra-VTA LPS vs systemic cocaine
[3] = test system: cocaine conditioned place preference; assay: Conditioned place preference; assay type: in vivo, rat; conditions: tested drug-free; cocaine 10 mg/kg i.p.
[4] = assay type: in vivo, rat; conditions: pretreatment […] s.c. twice; cocaine 10 mg/kg i.p.; hippocampus
[5] = test system: isolated neonatal microglial cells; assay: IL-1β mRNA expression in isolated neonatal microglial cell culture; conditions: neonatal microglia; (+)-naloxone 1, 10, 100 µM co-treatment
[6] = test system: cocaine self-administration; assay: Rat self-administration; assay type: in vivo; conditions: pre-session (+)-naltrexone s.c.
MD-2 [7] = biological target: T1, MD-2 (Homo sapiens, UniProt Q9Y6Y9); assay: Bis-ANS displacement assay; assay type: binding
T1 sequence (Q9Y6Y9 19-160): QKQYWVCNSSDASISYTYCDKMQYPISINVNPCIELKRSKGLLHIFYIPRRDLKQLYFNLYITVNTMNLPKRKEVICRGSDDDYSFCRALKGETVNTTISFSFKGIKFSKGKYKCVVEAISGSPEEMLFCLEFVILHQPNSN

MD-2 [8] = biological target: T1, MD-2; assay: Biophysical ELISA binding assays

Molecule: C=CCN1CC[C@]23c4c5ccc(O)c4O[C@H]2C(=O)CC[C@]3(O)[C@H]1C5 [(+)-Naloxone]
- effect on cocaine-induced increases of intra-VTA IL1β mRNA [1]: blocked
- effect on basal NAc dopamine levels [2]: did not influence basal dopamine levels
- effect on intra-VTA neurotensin-induced elevation of NAc dopamine [2]: unaltered
- conditioned place preference, compound alone [3]: produced no appetitive or aversive CPP
- effect on brain cocaine concentrations [4]: not altered
- effect on cocaine-induced upregulation of IL-1β mRNA [5]: blocked

Molecule: O=C1CC[C@]2(O)[C@@H]3Cc4ccc(O)c5c4[C@]2(CCN3CC2CC2)[C@@H]1O5 [(+)-naltrexone]
- effect on food-maintained responding [6]: failed to suppress responding to food
- effect on responding for cocaine (self-administration) ([6]; fixed-ratio dose-response): suppressed responding for cocaine at the peak cocaine doses

Molecule: COC(=O)[C@H]1[C@@H](OC(=O)c2ccccc2)C[C@@H]2CC[C@H]1N2C [Cocaine]
- Ki (MD-2 [7]): 23.9 ± 5.9 µM
- binding to human MD-2 (ELISA) (MD-2 [8]; aptamer-immobilized cocaine): bound to human MD-2 in a concentration-dependent manner
- extracellular NAc dopamine, compound alone [2]: robust increases in extracellular NAc dopamine
- increase of NAc dopamine concentrations [2]: 300%
- conditioned place preference, compound alone [3]: produces place preference

Molecule: CN(C)c1ccc(O)c2c1C[C@H]1C[C@H]3[C@H](N(C)C)C(O)=C(C(N)=O)C(=O)[C@@]3(O)C(O)=C1C2=O [minocycline]
- conditioned place preference, compound alone [3]: neither water nor minocycline altered place preference

Molecule: IL1ra: IL-1 receptor antagonist
- effect on basal NAc dopamine levels [2]: did not alter basal DA levels in the NAc
- effect on intra-VTA neurotensin-induced elevation of NAc dopamine [2]: did not alter neurotensin-induced dopamine elevations in the NAc

Molecule: lipopolysaccharide [LPS]
- competition with cocaine for binding to MD-2 (ELISA) (MD-2 [8]; varying concentrations of LPS added): displaced cocaine binding to MD-2
- extracellular NAc dopamine, compound alone [2]: increased
- increase of NAc dopamine concentrations [2]: < 200%

Molecule: neurotensin
- extracellular NAc dopamine, compound alone [2]: induced increased NAc dopamine
